Assay results as given in patent US9695155B2, “Herbicidal substituted pyrimidinyloxy benzene compounds” (E. I. DU PONT DE NEMOURS AND COMPANY, priority 2013, dated 2017).

How the values were obtained:
bromegrass, downy = assay: Test D preemergence; format: in vivo, Bromus tectorum; settings: Bromus tectorum, pre-emergence, scale 0-100, read-out: Plant response rating, Bromegrass, Downy
From the text: (§1) Seeds of plant species selected from bluegrass (annual bluegrass, Poa annua), blackgrass (Alopecurus myosuroides), canarygrass (littleseed canarygrass, Phalaris minor), chickweed (common chickweed, Stellaria media), galium (catchweed bedstraw, Galium aparine), bromegrass, downy (downy bromegrass, Bromus tectorum), field poppy (Papaver rhoeas), field violet (Viola arvensis), green foxtail (Setaria viridis), deadnettle (henbit deadnettle, Lamium amplexicaule), Italian ryegrass (Lolium multiflorum), kochia (Kochia scoparia), lambsquarters (Chenopodium album), oilseed rape (Brassica napus), pigweed (Amaranthus retroflexus), chamomile (scentless chamomile, Matricaria inodora), Russian thistle (Salsola kali), speedwell (bird's-eye speedwell, Veronica persica), spring barley (Hordeum vulgare), spring wheat (Triticum aestivum), wild buckwheat (Polygonum convolvulus), wild mustard (Sinapis arvensis), wild oat (Avena fatua), wild radish (Raphanus raphanistrum), windgrass (Apera spica-venti), winter barley (Hordeum vulgare), and winter wheat (Triticum aestivum) were planted into a silt loam soil and treated preemergence with test chemicals formulated in a non-phytotoxic solvent mixture which included a surfactant.
(§2) At the same time, these species were planted in pots containing Redi-Earth® planting medium (Scotts Company, 14111 Scottslawn Road, Marysville, Ohio 43041) comprising spaghnum peat moss, vermiculite, wetting agent and starter nutrients and treated with postemergence applications of the test chemicals formulated in the same manner. Plants ranged in height from 2 to 18 cm (1- to 4-leaf stage). Treated plants and controls were maintained in a controlled growth environment for 7 to 21 days after which time all species were compared to controls and visually evaluated. Plant response ratings, summarized in Table D, are based on a scale of 0 to 100 where 0 is no effect and 100 is complete control. A dash (-) response means no test result.

green foxtail = assay: Test D postemergence; format: in vivo, Setaria viridis; settings: Setaria viridis, post-emergence, scale 0 to 100 (0 no effect, 100 complete control), read-out: Plant response rating, Foxtail, Green
From the text: as §1, §2

wild buckwheat = assay: Test D postemergence; format: in vivo, Polygonum convolvulus; settings: Fallopia convolvulus, post-emergence, Postemergence, scale 0 to 100 (0 no effect, 100 complete control), read-out: Plant response rating, Buckwheat, Wild
From the text: as §1, §2

chamomile = assay: Test D postemergence; format: in vivo, Matricaria inodora; settings: Tripleurospermum inodorum, post-emergence, scale 0 to 100 (0 no effect, 100 complete control), read-out: Plant response rating, Chamomile
From the text: as §1, §2

field violet [1] = assay: Test D postemergence; format: in vivo, Viola arvensis; settings: Viola arvensis, post-emergence, scale 0 to 100 (0 no effect, 100 complete control), read-out: Plant response rating, Field Violet
From the text: as §1, §2

lambsquarters = assay: Test D preemergence; format: in vivo, Chenopodium album; settings: Chenopodium album, pre-emergence, scale 0-100, read-out: Plant response rating, Lambsquarters
From the text: as §1, §2

bluegrass = assay: Test D postemergence; format: in vivo, Poa annua; settings: Poa annua, post-emergence, Postemergence, scale 0 to 100 (0 no effect, 100 complete control), read-out: Plant response rating, Bluegrass
From the text: as §1, §2

speedwell = assay: Test D preemergence; format: in vivo, Veronica persica; settings: Veronica persica, pre-emergence
From the text: as §1, §2

field violet [2] = assay: Test D preemergence; format: in vivo, Viola arvensis; settings: Viola arvensis, pre-emergence, scale 0-100, read-out: Plant response rating, Field Violet
From the text: as §1, §2

oilseed rape = assay: Test D postemergence; format: in vivo, Brassica napus; settings: Brassica napus, post-emergence, scale 0 to 100 (0 no effect, 100 complete control), read-out: Plant response rating, Oilseed Rape
From the text: as §1, §2

Italian ryegrass = assay: Test D postemergence; format: in vivo, Lolium multiflorum; settings: Lolium multiflorum, post-emergence, scale 0 to 100 (0 no effect, 100 complete control), read-out: Plant response rating, Ryegrass, Italian
From the text: as §1, §2

In the case of `N#Cc1cccc(Oc2ncc(Cl)cn2)c1-n1cc(Br)cn1` [Compound 52, 2-(4-bromo-1H-pyrazol-1-yl)-3-[(5-chloro-2-pyrimidinyl)oxy]benzonitrile], the pest or weed control at 31 g/ha (bromegrass, downy; 31 g ai/ha) is reported as 0%, the pest or weed control at 62 g/ha (bromegrass, downy; 62 g ai/ha) is reported as 0% and the pest or weed control at 125 g/ha (bromegrass, downy; 125 g ai/ha) is reported as 0%. The pest or weed control at 250 g/ha (bromegrass, downy; 250 g ai/ha) was 0%, the pest or weed control at 31 g/ha (green foxtail; 31 g ai/ha) was 15% and the pest or weed control at 62 g/ha (green foxtail; 62 g ai/ha) was 20%. It also gave a pest or weed control at 125 g/ha (green foxtail; 125 g ai/ha) of 40%, a pest or weed control at 250 g/ha (green foxtail; 250 g ai/ha) of 75% and a pest or weed control at 31 g/ha (wild buckwheat; 31 g ai/ha) of 80%. The pest or weed control at 62 g/ha (wild buckwheat; 62 g ai/ha) was 95%, the pest or weed control at 125 g/ha (wild buckwheat; 125 g ai/ha) was 100% and the pest or weed control at 250 g/ha (wild buckwheat; 250 g ai/ha) was 100%. The pest or weed control at 31 g/ha (chamomile; 31 g ai/ha) was 10%, the pest or weed control at 62 g/ha (chamomile; 62 g ai/ha) was 15% and the pest or weed control at 125 g/ha (chamomile; 125 g ai/ha) was 20%. It also gave a pest or weed control at 250 g/ha (chamomile; 250 g ai/ha) of 15%, a pest or weed control at 31 g/ha (field violet [1]; 31 g ai/ha) of 100% and a pest or weed control at 62 g/ha (field violet [1]; 62 g ai/ha) of 100%. For the same molecule, the pest or weed control at 125 g/ha (field violet [1]; 125 g ai/ha) was 100%, the pest or weed control at 250 g/ha (field violet [1]; 250 g ai/ha) was 100% and the pest or weed control at 31 g/ha (lambsquarters; 31 g ai/ha) was 80%. It also gave a pest or weed control at 62 g/ha (lambsquarters; 62 g ai/ha) of 100%, a pest or weed control at 125 g/ha (lambsquarters; 125 g ai/ha) of 100% and a pest or weed control at 250 g/ha (lambsquarters; 250 g ai/ha) of 100%. The pest or weed control at 31 g/ha (bluegrass; 31 g ai/ha) was 15%, the pest or weed control at 62 g/ha (bluegrass; 62 g ai/ha) was 20% and the pest or weed control at 125 g/ha (bluegrass; 125 g ai/ha) was 15%. It also gave a pest or weed control at 250 g/ha (bluegrass; 250 g ai/ha) of 25%, a pest or weed control at 31 g/ha (speedwell; 31 g ai/ha, scale 0 (no effect) to 100 (complete control), read-out: Plant response rating, Speedwell) of 100% and a pest or weed control at 62 g/ha (speedwell; 62 g ai/ha, scale 0-100, read-out: Plant response rating, Speedwell) of 100%. For the same molecule, the pest or weed control at 125 g/ha (speedwell; 125 g ai/ha, scale 0-100, read-out: Plant response rating, Speedwell) was 100%, the pest or weed control at 250 g/ha (speedwell; 250 g ai/ha, scale 0-100, read-out: Plant response rating, Speedwell) was 100% and the pest or weed control at 31 g/ha (field violet [2]; 31 g ai/ha) was 75%. The pest or weed control at 62 g/ha (field violet [2]; 62 g ai/ha) was 95%, the pest or weed control at 125 g/ha (field violet [2]; 125 g ai/ha) was 100% and the pest or weed control at 250 g/ha (field violet [2]; 250 g ai/ha) was 100%. The plant injury at 31 g/ha (oilseed rape; 31 g ai/ha) was 55%, the plant injury at 62 g/ha (oilseed rape; 62 g ai/ha) was 65% and the plant injury at 125 g/ha (oilseed rape; 125 g ai/ha) was 85%. For the same molecule, the plant injury at 250 g/ha (oilseed rape; 250 g ai/ha) was 95%, the pest or weed control at 31 g/ha (Italian ryegrass; 31 g ai/ha) was 5% and the pest or weed control at 62 g/ha (Italian ryegrass; 62 g ai/ha) was 5%. The pest or weed control at 125 g/ha (Italian ryegrass; 125 g ai/ha) was 20% and the pest or weed control at 250 g/ha (Italian ryegrass; 250 g ai/ha) was 35%.
